This assay has as its system Ras. Nature of the assay: Ras activation affinity assay (GST-Raf1-RBD), Hek293 cells. The format is cell-based. The method, then:
Endogenous GTP-loaded Ras was determined using a Ras activation affinity assay as follows. Hek293 cells were grown, stimulated, and lysed as described above. Activated Ras was assayed as previously described (Schmitt and Stork, Mol. Cell. Biol. 21:3671-83, 2001). Briefly, equivalent amounts of lysates from stimulated cells were incubated with GST-Rafl-RBD (Ras-binding domain) as specified by the manufacturer (Upstate Biotechnology, Lake Placid, N.Y.). Proteins were eluted with 2×Laemmli buffer and applied to a 12% SDS polyacrylamide gel. Proteins were transferred to a PVDF membrane, blocked at room temperature for 1 hour in 5% milk and probed with either Ras or Flag antibody overnight at 4° C., followed by an HRP-conjugated anti-mouse secondary. Proteins were detected using enhanced chemiluminescence.
Mutation of tyrosine 527 of Src to phenylanaline (Y527F) produces a constitutively active (oncogenic) Src by eliminating the inhibitory phosphorylation at Y527 (Xu et al. Mol. Cell. 3(5): 629-38, 1999; Brown and Cooper, Biochim. Biophys. Acta 1287(2-3): 121-49, 1996). To determine the effect of this mutant on Ras and Rap1 activation, Hek293 cells were transfected with Flag-tagged Rap1 or Flag-tagged Ras, in the presence or absence of pcDNA3, SrcY527F, SrcS17A/Y527F, SrcS17D/Y527F, CBR, or Cb1-ct using the methods described above. […]

For `CC(C)NCC(O)c1ccc(O)c(O)c1` (stereo not shown) [isoproterenol], the “Activation of endogenous Ras” value was “activated endogenous Ras”.

(Values after patent US20050037446A1, “Agents that recognize src when phosphorylated at serine 17” (priority 2001, published 2005).)
